Measurements as given in patent US6447818B1, “Compositions containing compounds with adrenergic activity and vegetable extracts of Crataegus and gingko biloba for the treatment of overweight and obesity” (Ambros Pharma S.R.L., priority 1999, dated 2002).

Tested on: systemic arterial pressure and cardiac frequency in the rat
Assay: Hypertensive and tachycardic effects of adrenergic substances and extracts in the anesthetized rat
Format: in vivo
Conditions: i.v., anesthetized male Wistar rats, dose-dependent
Source text: 1. Effects of Crataegus Extract and Oterin® on Hypertension Induced with Ephedrine or with Extract of Ephedra Sinica Standardized in Ephedrine or Induced with Synephrine, or with Extract of Citrus Aurantium Standardized in Synephrine in the Rat
Male Wistar rats (Charles River, Calco-CO) weighing 180-200 grams were used. The animals were anesthetized with ethylurethane (1.2-1.5 g/kg i.p.) and prepared for the recording of systemic arterial pressure (via the carotid artery) and cardiac frequency. Individual examples of the registration (copies of the original tracings) and the summary of the mean data (±SEM) are given in FIGS. 1-4.
The dosages of synephrine leading to hypertensive activity were slightly higher (0.5-2 mg/kg i.v.) (FIGS. 2A, 3C). […] Tachycardia was induced in the same dose-dependent manner (FIGS. 3A, 3B).

CNCC(O)c1ccc(O)cc1 (stereo not shown) [synephrine]
dosages inducing hypertensive effects on the arterial pressure: 0.5 to 2 mg/kg
